Source: patent publication US7973055B2, “Crystalline forms of a biphenyl compound” (Theravance, Inc., priority 2006, dated 2011)
Where a name gives a salt, the structure may show the parent alone.

Key:
[1] = 5° C./min
Description: Differential scanning calorimetry (DSC) was performed using a TA Instruments Model Q-10 module with a Thermal Analyst controller. Data were collected and analyzed using TA Instruments Thermal Solutions software. A sample of about 1 mg was accurately weighed into an aluminum pan with lid. The sample was evaluated using a linear heating ramp of 5° C./min from ambient temperature to approximately 300° C. The DSC cell was purged with dry nitrogen during use.

[2] = Dynamic moisture sorption (DMS) assessment; type: physicochemical; conditions: for level of hygroscopicity / weight gain when exposed to up to 90% relative humidity: DMS; for weight gain when exposed to up to 90% relative humidity: up to 90% RH; for deliquescence: exposed to up to 90% relative humidity
Description: A dynamic moisture sorption (DMS) assessment (also known as a moisture sorption-desorption profile) was performed for samples of a crystalline hemiedisylate (prepared as described in Example 2) and a heminapadisylate (prepared as described in Example 5) salt using a VTI atmospheric microbalance, SGA-100 system (VTI Corp., Hialeah, Fla. 33016). A sample size of approximately 10 mg was used and the humidity was set at the ambient value at the start of the analysis. A typical DMS analysis consisted of three scans: ambient to 2% relative humidity (RH), 2% RH to 90% RH, 90% RH to 5% RH at a scan rate of 5% RH/step. The mass was measured every two minutes and the RH was changed stepwise to the next value (+/−5% RH) when the mass of the sample was stable to within 0.02% for 5 consecutive points.

[3] = Solid state stability assessment (HPLC); conditions: about 1 month at 40° C. and 75% RH
Description: These stock solutions were diluted to 1 mg/mL in 10% ACN for injection onto the HPLC.

[4] = 0.2 mg/mL freebase equivalents in 10 mM citrate buffered normal saline, pH 4.5; one month at 40° C./75% RH
Description: A solution was prepared with 0.2 mg/mL freebase equivalents (using a crystalline heminapadisylate salt prepared as described in Example 5) in 10 mM citrate buffered normal saline, pH 4.5. Less than 0.5% degradation was observed after storage for one month at 40° C./75% RH.

Structure (SMILES) | no thermal decomposition below (DSC trace) [1] [°C] | weight gain when exposed to up to 90% relative humidity [2] | other results
CN(CCN1CCC(OC(=O)Nc2ccccc2-c2ccccc2)CC1)C(=O)c1cccc(C(=O)NCCNCc2ccc(O)cc2)c1 [crystalline freebase (Form I), Crystalline Freebase Biphenyl-2-ylcarbamic Acid 1-[2-({3-[2-(4-Hydroxybenzylamino)ethylcarbamoyl]benzoyl}methylamino)ethyl]piperidin-4-yl Ester (Form I)] | ≥ 95 | – | –
CN(CCN1CCC(OC(=O)Nc2ccccc2-c2ccccc2)CC1)C(=O)c1cccc(C(=O)NCCNCc2ccc(O)cc2)c1.CN(CCN1CCC(OC(=O)Nc2ccccc2-c2ccccc2)CC1)C(=O)c1cccc(C(=O)NCCNCc2ccc(O)cc2)c1.O=S(=O)(O)CCS(=O)(=O)O [crystalline hemiedisylate salt, Crystalline Hemiedisylate Salt of Biphenyl-2-ylcarbamic Acid 1-[2-({3-[2-(4-Hydroxybenzylamino)ethylcarbamoyl]benzoyl}methylamino)ethyl]piperidin-4-yl Ester] | ≥ 190 | less than 4% | level of hygroscopicity [2]: moderate and low; deliquescence [2]: not deliquescent
CN(CCN1CCC(OC(=O)Nc2ccccc2-c2ccccc2)CC1)C(=O)c1cccc(C(=O)NCCNCc2ccc(O)cc2)c1 [crystalline monooxalate salt] | – | less than 14% | –
CN(CCN1CCC(OC(=O)Nc2ccccc2-c2ccccc2)CC1)C(=O)c1cccc(C(=O)NCCNCc2ccc(O)cc2)c1.CN(CCN1CCC(OC(=O)Nc2ccccc2-c2ccccc2)CC1)C(=O)c1cccc(C(=O)NCCNCc2ccc(O)cc2)c1.O=S(=O)(O)c1cccc2c(S(=O)(=O)O)cccc12 [crystalline heminapadisylate salt, Crystalline Heminapadisylate Salt of Biphenyl-2-ylcarbamic Acid 1-[2-({3-[2-(4-Hydroxybenzylamino)ethylcarbamoyl]benzoyl}methylamino)ethyl]piperidin-4-yl Ester] | ≥ 220 | less than 2% | weight gain in the humidity range of 40-75% RH ([2]; 40-75% RH): 0.46%; level of hygroscopicity [2]: low; deliquescence [2]: not deliquescent; chemical degradation by HPLC after storage [3]: less than 0.5%; degradation of inhalation solution after storage [4]: Less than 0.5%
CN(CCN1CCC(OC(=O)Nc2ccccc2-c2ccccc2)CC1)C(=O)c1cccc(C(=O)NCCNCc2ccc(O)cc2)c1 [crystalline dipropionate salt] | – | less than 11% | –
CN(CCN1CCC(OC(=O)Nc2ccccc2-c2ccccc2)CC1)C(=O)c1cccc(C(=O)NCCNCc2ccc(O)cc2)c1 [crystalline diacetate salt] | – | less than 18% | –
CN(CCN1CCC(OC(=O)Nc2ccccc2-c2ccccc2)CC1)C(=O)c1cccc(C(=O)NCCNCc2ccc(O)cc2)c1 [crystalline freebase (Form II), Crystalline Freebase Biphenyl-2-ylcarbamic Acid 1-[2-({3-[2-(4-Hydroxybenzylamino)ethylcarbamoyl]benzoyl}methylamino)ethyl]piperidin-4-yl Ester (Form II)] | ≥ 110 | – | –
